Values joined by “and” are separate entries in the source; they are usually repeats but may differ in a detail not shown here. Equal entries are not always repeated.
Key:
[1] = system: horse poly-IgG; conditions: read-out: IC50 of H2O2 on the photo-production of H2O2 by horse poly-IgG; horse IgG 6.7 μM, H2O2 0-450 μM, near-UV
Description: Such a graph permits determination of the IC50 of H2O2 on the photo-production of H2O2 by horse poly-IgG. A solution of horse IgG (6.7 μM) was incubated with varying concentrations of H2O2 (0-450 μM) and the initial rate of H2O2 formation measured as described in FIG. 8A.

[2] = Decomposition of O3 under aqueous conditions; format: physicochemical; conditions: PBS pH 7.4, 22° C.
Description: The rate of decomposition of O3 under the aqueous conditions employed was measured by the following method. Ozone, produced by a passage of O2 through a Polymetrics ozonizer, was bubbled for 2 min through a phosphate buffered saline (PBS, pH 7.4) solution in a quartz cuvette (1 cm^2) at room temperature. The time-dependent change in optical density was then measured at 260 nm (ε=2,700 M^−[…]) for at least 5 half lives in a Hitachi u.v./vis spectrophotometer equipped with a thermostatted rack at 22° C. See Takeuchi et al., Anal. Chim. Acta. 230, 183 (1990). […] The sensitivity of the assay was limited by spectrophotometer accuracy to ±0.1% (˜1 μM) of the OD at t=0.

[3] = system: E. coli; test: Bactericidal assay (CFU recovery), strain not singled out; format: cell-based; conditions: 40 μM, white light 2.7 mW cm^−2, 1 h, PBS, 4±1° C.
Description: (§1) In a typical experiment, a culture of E. coli (in log phase growth, OD600=0.2-0.3) was repeatedly pelleted (3×3,500 rpm) and resuspended in PBS (pH 7.4). The PBS suspended cells were then added to glass vials and cooled to 4° C. […] Viability was determined by recovery of colony forming units (CFUs) on agar plates. Each experiment was performed at least in duplicate.
as §1, with “washed in PBS by pelleting” for “pelleted”, “rpm) the cells” for “rpm)”, “resuspending them” for “resuspended”

[4] = Antibody/protein UV irradiation with Amplex Red quantitative assay for hydrogen peroxide; format: biochemical; conditions: for reduction of ^1O2 (panel of other proteins): UV irradiation, PBS
Description: Aliquots (10 μL) were removed at timed intervals throughout the assay. H2O2 concentration was determined by the amplex red method. Each data point is reported as the mean±SEM of at least duplicate measurements: ? polyclonal (poly) immunoglobulin (Ig) G, human; O poly-IgG, horse; ? poly-IgG, sheep; ∇ monoclonal (m) IgG (WD1-6G6), murine; ? poly-IgM, human; ? mIgG (92H2), murine; ¦ β-galactosidase (β-gal); ? chick ovalbumin (OVA); ? a-lactalbumin (a-lact); ? bovine serum albumin (BSA).
Antibody/Protein Irradiation.
Quantitative Assay for Hydrogen Peroxide. An aliquot (20 μl) from the protein solution was removed and added into a well of a 96-well microtiter plate (Costar) containing reaction buffer (80 μl). Working solution (100 μl/400 μM Amplex Red reagent 1/2 units/ml horseradish peroxidase) was then added, and the plate was incubated in the dark for 30 min. The fluorescence of the well components was then measured using a CytoFluor Multiwell Plate Reader (Series 4000, PerSeptive Biosystems, Framingham, Mass.; Ex/Em: 530/580 nm). The hydrogen peroxide concentration was determined using a standard curve. All experiments were run in duplicate, and the rate is quoted as the mean of at least two measurements.
A suspension of crystals of the Fab fragment of 1D4 (2 μl) was diluted with PBS (198 μl, pH 7.4) and vortexed gently. Following centrifugation, the supernatant was removed, and the washing procedure was repeated twice further. The residual crystal suspension was then diluted into PBS, pH 7.4 (100 μl), and added into a well of a quartz ELISA plate. Following UV irradiation for 30 min, Amplex Red working solution (100 μl) was added, and the mixture was viewed on a fluorescence microscope.
Denaturation. […] The resultant solution was transferred to a glass, screw-cap vial and irradiated with UV light for 30 min. The concentration of H2O2 was determined after 30 min.

[5] = system: E. coli XL1-blue; test: Bactericidal assay (CFU recovery); format: cell-based; conditions: catalase 13 mU/mL
Description: (§2) In a typical experiment, a culture of E. coli (in log phase growth, OD600=0.2-0.3) was repeatedly pelleted (3×3,500 rpm) and resuspended in PBS (pH 7.4). The PBS suspended cells were then added to glass vials and cooled to 4° C. Hematoporphyrin IX (40 μM) and antibody (20 μM) were added and the vials were either placed on a light box (visible light, 2.8 mW cm^−2) or in the dark at 4° C. and incubated for 1 h. Viability was determined by recovery of colony forming units (CFUs) on agar plates. Each experiment was performed at least in duplicate.
as §2, with “washed in PBS by pelleting” for “pelleted”, “rpm) the cells” for “rpm)”, “resuspending them” for “resuspended”

Molecule: OO [Clone H2O2, hydrogen peroxide]
- IC50 [1]: ~225 µM and 225 µM

Molecule: O=[O+][O-] [Clone O3, ozone]
- half-life (t1/2) under aqueous conditions [2]: 1.1 min

Molecule: CC1=C(CCC(=O)O)c2cc3[nH]c(cc4nc(cc5[nH]c(cc1n2)c(C)c5C(C)O)C(C)=C4C(C)O)c(C)c3CCC(=O)O (centres unmarked) [hematoporphyrin IX]
- bactericidal activity of sensitizer alone [3]: negligible bactericidal activity

Molecule: N[C@@H](Cc1c[nH]c2ccccc12)C(=O)O [tryptophan]
- H2O2 produced during near-UV photo-oxidation ([4]; near-UV irradiation, 20 μM): ca. 0.5 mole equivalents

Molecule: catalase
- protection against the bactericidal activity of non-specific antibodies [5]: complete protection

Molecule: β-galactosidase
- H2O2 generated during near-UV irradiation ([4]; near-UV irradiation, 6.7 μM): 5.9 mol eq.

B1: RNase A: ribonuclease, no Trp residues, several disulfide bonds (protein, UniProt P61823 27-150, looked up)
Ribonuclease pancreatic: KETAAAKFERQHMDSSTSAASSSNYCNQMMKSRNLTKDRCKPVNTFVHESLADVQAVCSQKNVACKNGQTNCYQSYSTMSITDCRETGSSKYPNCAYKTTQANKHIIVACEGNPYVPVHFDASV
- reduction of ^1O2 (panel of other proteins) [4]: do not reduce

B2: chick ovalbumin: chick-egg ovalbumin (protein, UniProt P01012 2-386, looked up)
Ovalbumin: GSIGAASMEFCFDVFKELKVHHANENIFYCPIAIMSALAMVYLGAKDSTRTQINKVVRFDKLPGFGDSIEAQCGTSVNVHSSLRDILNQITKPNDVYSFSLASRLYAEERYPILPEYLQCVKELYRGGLEPINFQTAADQARELINSWVESQTNGIIRNVLQPSSVDSQTAMVLVNAIVFKGLWEKAFKDEDTQAMPFRVTEQESKPVQMMYQIGLFRVASMASEKMKILELPFASGTMSMLVLLPDEVSGLEQLESIINFEKLTEWTSSNVMEERKIKVYLPRMKMEEKYNLTSVLMAMGITDVFSSSANLSGISSAESLKISQAVHAAHAEINEAGREVVGSAEAGVDAASVSEEFRADHPFLFCIKHIATNAVLFFGRCVSP
- reduction of ^1O2 (panel of other proteins) [4]: one of the most efficient proteins
